We go through 1 compound from patent publication US12577234B2, “Antagonists of the muscarinic acetylcholine receptor M4” (Vanderbilt University, priority 2017, dated 2026).

For test [1], the system named is haloperidol-induced catalepsy in mice. Description: catalepsy induced by the DA receptor antagonist haloperidol. The format is in vivo.
The test system of the next test is M4 knockout mice. The conditions noted are these: but not the other four mAChR subtypes; cited from earlier work.

Turning to `CN1[C@@H]2C[C@@H](OC(=O)[C@H](CO)c3ccccc3)C[C@H]1[C@@H]1O[C@@H]12` [scopolamine], the “reduction of haloperidol-induced catalepsy” value in test [1] (M4KO mice) is recorded as “ineffective in reducing catalepsy”. The “reversal of haloperidol-induced catalepsy” value in test [1] (WT mice) was “completely reversed”. For the same compound, in the test with M4 knockout mice, the locomotor-activating effects entry was “dramatically reduced”.
